Experimental data taken from patent US20160039825A1 (BIOGEN MA INC., priority 2013, published 2016).

Biological target: T1, Human ATX protein (Homo sapiens, UniProt Q13822)
T1 construct: made in house
Experiment: Autotaxin (ATX) assay, FRET with FS-3 substrate
Type: biochemical
Conditions: upper bound bins (no greater than 100, 250 or 500 nM); FS-3 2 μM, ATX 1.0 μg/mL
Source text: ATX (Autotaxin) is a 125 KDa glycoprotein with lysophospholipase D (LPLD) activity that generates the bioactive lipid lysophosphatidic acid (LPA) from lysophosphatidylcholine (LPC). The ATX biochemical assay utilizes a FRET (fluorescence resonance energy transfer) technology platform. The fluorescence signal of FRET substrate FS-3 is quenched due to intra-molecular FRET of a fluorophore to a non-fluorescing quencher (Ferguson, C. G., et al., Org Lett. 2006 May 11; 8(10): 2023-2026, which is incorporated by reference in its entirety). ATX catalyzes the hydrolysis of the substrate which separates the dabsyl quencher from the fluorescein reporter, which becomes fluorescent. The reaction is monitored by a SpectraMax M5 (Molecular Devices, Sunnyvale, Calif.) with at excitation wavelength 485 nm and emission wavelength […].
Fatty acid free-BSA (Sigma A8806): 10 mg/mL in H2O, stored at 4° C.
2×ATX assay buffer: 100 mM Tris, 280 mM NaCl, 10 mM KCl, 2 mM CaCl2, 2 mM MgCl2, pH 7.4.
Human ATX protein: expressed and purified in house. Stored at −80° C.
Substrate FS-3 (Echelon, L-2000): 100 μg in 77.74 μL H2O (1 mM stock), stored at −20° C.
384-well flat bottom plates—Corning #3575.
Compound dilution—All compounds were provided at 10 mM in 100% DMSO. In the first well, 2 μL of 10 mM compound was added to 78 μL of DMSO (1:40 dilution). In subsequent wells 3-fold dilution (total 10 dilutions) were performed.
1×ATX assay buffer was made up with a final concentration of 1 mg/mL fatty acid free-BSA using 2×ATX assay buffer, 10 mg/ml fatty acid free-BSA and ddH2O.
ATX protein was diluted with 1×ATX assay buffer to a concentration of 1.32 μg/mL (1.32×). 38 μL was added per well to the assay plate. The final concentration of ATX in the reaction as 1.0 μg/mL.
2 μL per well of compounds was transferred to provide the desired concentration. The plate was centrifuged, then incubated at room temperature for 30 minutes on the shaker.
FS-3 was diluted with 1×ATX assay buffer to a concentration of FS-3 of 10 μM (5×). Then, 10 μL was added per well to the assay plate. The final concentration of FS-3 in the reaction was 2 μM. The plate was centrifuged. The plate was kept shaking at room temperature for 2 hours. Because FS-3 substrate is light sensitive, plates were kept covered and protected from light.
Fluorescence was measured using SpectraMax M5 (excitation at 485 nm/emission at 538 nm, top read).

IC50 [nM]	Structure (SMILES)
≤ 100	O=C(OCc1cc(Cl)cc(C(F)(F)F)c1)N1CCCn2nc(C3CN4CCCC[C@H]4CO3)cc2C1 (mixture of isomers) [Example 253, 3-chloro-5-(trifluoromethyl)benzyl 2-((9aS)-octahydropyrido[2,1-c][1,4]oxazin-3-yl)-7,8-dihydro-4H-pyrazolo[1,5-a][1,4]diazepine-5(6H)-carboxylate]
≤ 100	CCOC(=O)c1cc2n(n1)CCCN(C(=O)OCc1cc(C(F)(F)F)cc(C(F)(F)F)c1)C2 [Example 2, 5-(3,5-Bis(trifluoromethyl)benzyl) 2-ethyl 7,8-dihydro-4H-pyrazolo[1,5-a][1,4]diazepine-2,5(6H)-dicarboxylate]
≤ 100	CCOC(=O)c1cn2c(n1)CN(C(=O)OCc1cc(C(F)(F)F)cc(C(F)(F)F)c1)CC2 [Example 3, 7-(3,5-Bis(trifluoromethyl)benzyl) 2-ethyl 5,6-dihydroimidazo[1,2-a]pyrazine-2,7(8H)-dicarboxylate]
≤ 100	O=C(O)c1cc2n(n1)CCCN(C(=O)OCc1cc(Cl)cc(Cl)c1)C2 [Example 7, 5-(((3,5-Dichlorobenzyl)oxy)carbonyl)-5,6,7,8-tetrahydro-4H-pyrazolo[1,5-a][1,4]diazepine-2-carboxylic acid]
≤ 500	O=C(O)c1cnc2n1CCN(C(=O)OCc1cc(C(F)(F)F)cc(C(F)(F)F)c1)CC2 [Example 10, 7-(((3,5-Bis(trifluoromethyl)benzyl)oxy)carbonyl)-6,7,8,9-tetrahydro-5H-imidazo[1,2-d][1,4]diazepine-3-carboxylic acid]
≤ 250	CC(C)(C)NC(=O)c1cc2n(n1)CCCN(C(=O)OCc1cc(Cl)cc(Cl)c1)C2 [Example 14, 3,5-Dichlorobenzyl 2-(tert-butylcarbamoyl)-7,8-dihydro-4H-pyrazolo[1,5-a][1,4]diazepine-5(6H)-carboxylate]

The remaining lines, values behind:

Structure (SMILES)	IC50 [nM]
O=C(OCc1cc(Cl)cc(C(F)(F)F)c1)N1CCCn2nc(C3CN4CCC[C@H]4CO3)cc2C1 (mixture of isomers) [Example 251, 3-Chloro-5-(trifluoromethyl)benzyl 2-((8aS)-hexahydro-1H-pyrrolo[2,1-c][1,4]oxazin-3-yl)-7,8-dihydro-4H-pyrazolo[1,5-a][1,4]diazepine-5(6H)-carboxylate]	≤ 100
O=C(OCc1cc(Cl)cc(C(F)(F)F)c1)N1CCCn2nc(C3CN4CCCC[C@@H]4CO3)cc2C1 (mixture of isomers) [Example 254, 3-chloro-5-(trifluoromethyl)benzyl 2-((9aR)-octahydropyrido[2,1-c][1,4]oxazin-3-yl)-7,8-dihydro-4H-pyrazolo[1,5-a][1,4]diazepine-5(6H)-carboxylate]	≤ 100
O=C(OCc1cc(Cl)cc(C(F)(F)F)c1)N1CCCn2nc(C3CN4CCC[C@@H]4CO3)cc2C1 (single isomer, unassigned) [Example 252A]	≤ 100
CCOC(=O)c1cc2n(n1)CCCN(C(=O)OCc1cc(Cl)cc(Cl)c1)C2 [Example 1, 5-(3,5-Dichlorobenzyl) 2-ethyl 7,8-dihydro-4H-pyrazolo[1,5-a][1,4]diazepine-2,5(6H)-dicarboxylate]	≤ 500
O=C(O)c1cc2n(n1)CCCN(C(=O)OCc1cc(C(F)(F)F)cc(C(F)(F)F)c1)C2 [Example 8, 5-(((3,5-Bis(trifluoromethyl)benzyl)oxy)carbonyl)-5,6,7,8-tetrahydro-4H-pyrazolo[1,5-a][1,4]diazepine-2-carboxylic acid]	≤ 100
O=C(OCc1cc(Cl)cc(Cl)c1)N1CCCn2nc(C(=O)N3C4CCCC3CCC4)cc2C1 [Example 12, 3,5-Dichlorobenzyl 2-(9-azabicyclo[3.3.1]nonane-9-carbonyl)-7,8-dihydro-4H-pyrazolo[1,5-a][1,4]diazepine-5(6H)-carboxylate]	≤ 100
O=C(NC1CCC1)c1cc2n(n1)CCCN(C(=O)OCc1cc(Cl)cc(Cl)c1)C2 [Example 15, 3,5-Dichlorobenzyl 2-(cyclobutylcarbamoyl)-7,8-dihydro-4H-pyrazolo[1,5-a][1,4]diazepine-5(6H)-carboxylate]	≤ 100
